± gives the uncertainty stated by the source.
Experiment: xn = mol fraction of the nth substance listed

CC(=O)[O-].CC[N+]1(C)CCOCC1 + O
viscosity [mPa·s], 100 kPa
Conditions | x1 = 0.0567 | x1 = 0.0886 | x1 = 0.1794 | x1 = 0.253 | x1 = 0.3334 | x1 = 0.4341 | x1 = 0.4928 | x1 = 0.5718 | x1 = 0.6609 | x1 = 0.7155
298.15 K | 3.5 ± 0.36 | 7.01 ± 0.73 | 36.6 ± 3.7 | 89.4 ± 9.2 | 203 ± 23 | 541 ± 68 | 671 ± 87 | 1472 ± 210 | – | –
303.15 K | 3.03 ± 0.3 | 5.93 ± 0.6 | 31.9 ± 3.2 | 66 ± 6.7 | 143 ± 15 | 347 ± 41 | 503 ± 62 | 1093 ± 150 | – | –
308.15 K | 2.65 ± 0.27 | 5.05 ± 0.51 | 27 ± 2.7 | 50 ± 5 | 104 ± 11 | 228 ± 26 | 383 ± 46 | 795 ± 100 | 1969 ± 300 | –
313.15 K | 2.34 ± 0.24 | 4.33 ± 0.44 | 22.5 ± 2.3 | 38.7 ± 3.9 | 78.1 ± 7.9 | 150 ± 16 | 278 ± 32 | 566 ± 71 | 1355 ± 200 | 2266 ± 350
318.15 K | 2.08 ± 0.21 | 3.73 ± 0.38 | 18.2 ± 1.8 | 30.7 ± 3.1 | 59.8 ± 6 | 123 ± 13 | 198 ± 22 | 396 ± 47 | 908 ± 120 | 1518 ± 220
323.15 K | 1.86 ± 0.19 | 3.25 ± 0.33 | 15 ± 1.5 | 24.8 ± 2.5 | 46.8 ± 4.7 | 92.9 ± 9.5 | 144 ± 15 | 276 ± 32 | 599 ± 76 | 971 ± 130

CCNCC + O
297.65 K, 101.33 kPa
Conditions | viscosity [mPa·s]
x1 = 0.0033 | 0.928 ± 0.011
x1 = 0.0087 | 1.051 ± 0.011
x1 = 0.0165 | 1.24 ± 0.013
x1 = 0.023 | 1.405 ± 0.014
x1 = 0.0271 | 1.508 ± 0.014
x1 = 0.0342 | 1.691 ± 0.016
x1 = 0.0458 | 1.985 ± 0.017
x1 = 0.0592 | 2.305 ± 0.02
x1 = 0.0733 | 2.604 ± 0.022
x1 = 0.0885 | 2.863 ± 0.023
x1 = 0.104 | 3.037 ± 0.025
x1 = 0.1203 | 3.096 ± 0.025
x1 = 0.1385 | 3.121 ± 0.025

COCCOCCOCCO + O
101.33 kPa
Conditions | viscosity [mPa·s]
298.15 K, x1 = 0.0497 | 2.531 ± 0.3
298.15 K, x1 = 0.0989 | 4.964 ± 0.32
298.15 K, x1 = 0.1415 | 6.443 ± 0.32
298.15 K, x1 = 0.2035 | 7.869 ± 0.33
298.15 K, x1 = 0.3069 | 8.456 ± 0.34
298.15 K, x1 = 0.4204 | 7.901 ± 0.33
298.15 K, x1 = 0.5037 | 7.472 ± 0.33
298.15 K, x1 = 0.6109 | 6.897 ± 0.33
298.15 K, x1 = 0.7651 | 6.754 ± 0.33
298.15 K, x1 = 0.84 | 6.754 ± 0.33
298.15 K, x1 = 0.8917 | 6.594 ± 0.33
308.15 K, x1 = 0.0226 | 1.317 ± 0.012
308.15 K, x1 = 0.0554 | 2.514 ± 0.021
308.15 K, x1 = 0.0964 | 3.669 ± 0.033
308.15 K, x1 = 0.1278 | 4.537 ± 0.044
308.15 K, x1 = 0.1726 | 5.437 ± 0.057
308.15 K, x1 = 0.2157 | 5.977 ± 0.067
308.15 K, x1 = 0.2434 | 6.176 ± 0.072
308.15 K, x1 = 0.302 | 6.38 ± 0.081
308.15 K, x1 = 0.3364 | 6.428 ± 0.085
308.15 K, x1 = 0.3687 | 6.422 ± 0.089
308.15 K, x1 = 0.3952 | 6.376 ± 0.091
308.15 K, x1 = 0.42 | 6.331 ± 0.093
308.15 K, x1 = 0.4712 | 6.215 ± 0.097
308.15 K, x1 = 0.5057 | 6.123 ± 0.1
308.15 K, x1 = 0.5471 | 6.022 ± 0.1
308.15 K, x1 = 0.6208 | 5.83 ± 0.11
308.15 K, x1 = 0.6681 | 5.716 ± 0.11
308.15 K, x1 = 0.6996 | 5.651 ± 0.11
308.15 K, x1 = 0.775 | 5.463 ± 0.12
308.15 K, x1 = 0.8279 | 5.355 ± 0.12
308.15 K, x1 = 0.8744 | 5.266 ± 0.12
308.15 K, x1 = 0.9499 | 5.134 ± 0.13
313.15 K, x1 = 0.0497 | 1.632 ± 0.3
313.15 K, x1 = 0.0989 | 2.994 ± 0.31
313.15 K, x1 = 0.1415 | 3.785 ± 0.31
313.15 K, x1 = 0.2035 | 4.556 ± 0.32
313.15 K, x1 = 0.3069 | 4.963 ± 0.32
313.15 K, x1 = 0.4204 | 4.933 ± 0.32
313.15 K, x1 = 0.5037 | 4.812 ± 0.32
313.15 K, x1 = 0.6109 | 4.728 ± 0.32
313.15 K, x1 = 0.7651 | 4.394 ± 0.32
313.15 K, x1 = 0.84 | 4.295 ± 0.32
313.15 K, x1 = 0.8917 | 4.236 ± 0.32
323.15 K, x1 = 0.0497 | 1.3 ± 0.3
323.15 K, x1 = 0.0989 | 2.266 ± 0.3
323.15 K, x1 = 0.1415 | 2.812 ± 0.31
323.15 K, x1 = 0.2035 | 3.375 ± 0.31
323.15 K, x1 = 0.3069 | 3.689 ± 0.31
323.15 K, x1 = 0.4204 | 3.709 ± 0.31
323.15 K, x1 = 0.5037 | 3.647 ± 0.31
323.15 K, x1 = 0.6109 | 3.566 ± 0.31
323.15 K, x1 = 0.7651 | 3.428 ± 0.31
323.15 K, x1 = 0.84 | 3.352 ± 0.31
323.15 K, x1 = 0.8917 | 3.307 ± 0.31

COCCOCCOCCOC + O
viscosity [mPa·s], 101.33 kPa
Conditions | 298 K | 298.15 K
x1 = 0.0057 | – | 1.058 ± 0.008
x1 = 0.0077 | 1.15 ± 0.03 | –
x1 = 0.0124 | – | 1.278 ± 0.008
x1 = 0.0143 | 1.38 ± 0.036 | –
x1 = 0.0176 | – | 1.444 ± 0.009
x1 = 0.0247 | – | 1.737 ± 0.011
x1 = 0.0255 | 1.83 ± 0.048 | –
x1 = 0.0326 | – | 2.063 ± 0.013
x1 = 0.0455 | – | 2.613 ± 0.015
x1 = 0.0484 | 2.79 ± 0.073 | –
x1 = 0.0673 | – | 3.462 ± 0.02
x1 = 0.0796 | 3.89 ± 0.1 | –
x1 = 0.0814 | 3.95 ± 0.1 | –
x1 = 0.0826 | – | 4.032 ± 0.022
x1 = 0.0934 | 4.25 ± 0.11 | –
x1 = 0.1017 | – | 4.344 ± 0.024
x1 = 0.1022 | 4.4 ± 0.12 | –
x1 = 0.1092 | 4.49 ± 0.12 | –
x1 = 0.1166 | 4.6 ± 0.12 | –
x1 = 0.1215 | – | 4.581 ± 0.025
x1 = 0.1407 | 4.68 ± 0.12 | –
x1 = 0.1423 | – | 4.678 ± 0.026
x1 = 0.1607 | – | 4.625 ± 0.026
x1 = 0.1731 | 4.63 ± 0.12 | –
x1 = 0.1907 | – | 4.512 ± 0.025
x1 = 0.2117 | 4.39 ± 0.11 | –
x1 = 0.2288 | – | 4.179 ± 0.023
x1 = 0.2745 | 3.87 ± 0.1 | 3.819 ± 0.021
x1 = 0.3074 | – | 3.588 ± 0.02
x1 = 0.3483 | 3.29 ± 0.086 | –
x1 = 0.3653 | – | 3.236 ± 0.018
x1 = 0.4097 | – | 3.035 ± 0.017
x1 = 0.4311 | 2.9 ± 0.076 | –
x1 = 0.4857 | – | 2.706 ± 0.016
x1 = 0.5899 | 2.41 ± 0.063 | –
x1 = 0.593 | – | 2.398 ± 0.014
x1 = 0.6382 | – | 2.311 ± 0.014
x1 = 0.702 | – | 2.269 ± 0.014
x1 = 0.745 | 2.16 ± 0.056 | –
x1 = 0.7475 | – | 2.22 ± 0.013
x1 = 0.7813 | – | 2.166 ± 0.013
x1 = 0.7839 | 2.1 ± 0.055 | –
x1 = 0.8141 | – | 2.121 ± 0.013
x1 = 0.8687 | 2.04 ± 0.053 | –
x1 = 0.8937 | – | 2.068 ± 0.013
x1 = 0.9665 | – | 2.035 ± 0.013
